Data: patent US20240246968A1, “SMALL MOLECULE INHIBITORS OF KRAS G12C MUTANT” (Merck Sharp & Dohme LLC, priority 2021, published 2024)

Key:
[1] = target: T1, interaction between recombinant K-Ras4B G12C mutant protein and cRAF RAS-binding domain (cRAF-RBD) (Homo sapiens, UniProt P01116, G12C); test: Inhibitory activity on interaction between KRAS G12C and cRAF (Alpha technology); format: biochemical; details: GMPPNP-bound KRAS G12C incubated with compound at 25° C. for 1 hour, then cRAF-RBD; Alpha signal
T1 construct: made in house; host or cells: E. coli
Experimental: Interaction between recombinant K-Ras4B G12C mutant protein (amino acids 1-169, SEQ ID NO:2) and cRAF RAS-binding domain (cRAF-RBD, amino acids 50-132, Jena Biosciences GmbH) was measured using Alpha technology (PerkinElmer Inc.).
Recombinant KRAS G12C protein with an N-terminal His-tag was expressed in E. coli and purified by affinity chromatography. To prepare GTP-bound form and GDP-bound form of KRAS G12C protein. 50 μM KRAS G12C protein was incubated with 1 mM GMPPNP (Guanosine-5′-[(β,γ)-imido]triphosphate. Tetralithium salt)(Jena Bioscience GmbH) and 1 mM GDP, respectively, in a loading buffer (20 mM Tris-HCl (pH 7.5), 50 mM NaCl, 1 mM DTT and 2.5 mM EDTA) for 1 hour on ice. After the incubation, MgCl2 was added to a final concentration of 10 mM, followed by incubation at room temperature for 30 minutes. The mixture was allowed to pass through a NAP-5 column to remove free nucleotides and purified, and the resultant nucleotide-bound KRAS G12C protein was used for compound evaluation.
For the measurement of the inhibitory activity of compounds on interaction between KRAS G12C and cRAF-RBD, GMPPNP-bound KRAS G12C protein was incubated with various concentrations of compound in a reaction buffer (20 mM Tris-HCl (pH 7.5), 100 mM NaCl, 1 mM MgCl2, 1 mM TCEP. 0.1% Tween 20) at 25° C. for 1 hour. After the incubation, recombinant cRAF-RBD and Alpha detection reagents were added and incubated at room temperature for 1.5 hours for binding. Interaction of KRAS G12C and cRAF-RBD was monitored by measuring Alpha signal. Inhibition % was calculated using the signal from the reaction without test compound (DMSO control) as 0% inhibition and the signal from the reaction using GDP-bound KRAS G12C in place of GMPPNP-bound KRAS G12C as 100% inhibition. IC50 values were calculated from dose titration curve using curve fitting by XLfit software (IDBS). The following tables show the results.

[2] = target: Gppcp-bound recombinant K-Ras4B G12C mutant protein (amino acids 1-169, C51S/C80L/C118S) (Homo sapiens, UniProt P01116, C118S/C51S/C80L/G12C); test: KRASG12C binding assay (LC-MS, compound binding rate); details: test compound final concentration 0.5 μM, 25° C., 1 hour
Experimental: As test compounds for the KRASG12C binding assay, the compounds obtained in the “Preparation of Compounds” section were used. Sample solutions each containing a test compound were prepared in the form of a 10 mM DMSO solution.
Gppcp-bound recombinant K-Ras4B G12C mutant protein (amino acids 1-169, C51S/C80L/C118S, SEQ ID NO:1) was diluted with a buffer (1×TBS, 0.1 mM TCEP, 0.25 mM MgCl2, 50 μM Gppcp) to prepare a 50 nM protein solution. K-Ras4B is the major splicing variant of K-Ras. Amino acid sequence of residues 1 to 150 including the compounds' binding region of K-Ras4B is exactly same as that of K-Ras4A, the other splicing variant (Oncotarget. 2016 Jul. 19; 7(29): 46717-46733). A sample solution containing 10 mM test compound was diluted ten-fold with DMSO to make a 1 mM sample solution, and then diluted twenty-fold with DMSO to make a 50 μM sample solution. 1 μL of a 50 μM sample solution was added to 100 μL of a 50 nM protein solution to adjust the final concentration of a test compound to be 0.5 μM in the mixture. The mixtures were stored in an incubator at 25° C. for 1 hour, and 10 μL of a 1×TBS solution containing 2% formic acid was added to stop the reaction, followed by LC-MS measurement. LC-MS measurement was performed using Xevo G2-S Q-Tof manufactured by Waters, and reverse-phase chromatography was performed with a desalting column. A mass spectrum of positive ions was obtained by electrospray. For a mass spectrum, a spectrum of polyvalent ions was collectively converted to a molecular weight by using OpenLynx software by the MaxEnt technique, and a compound binding rate was calculated from the ratio of the signal intensity of a peak that corresponds to the molecular weight of the protein to the signal intensity of a peak that corresponds to the molecular weight of the protein conjugated with the compound.
The binding assay of the test compounds was conducted at a final concentration of 0.5 μM. A binding rate of 80% or more is rated “A”, a binding rate of 60% or more and less than 80% is rated “B”, a binding rate of 40% or more and less than 60% is rated “C”, a binding rate of 20% or more and less than 40% is rated “D”, and a binding rate of less than 20% is rated “E”. N.D.=not determined. Binding rate % is the ratio of KRAS signal intensity at the molecular weight of one molecule adduct to the sum of all the KRAS signal intensity (unbound form and adducts) in mass spectrum. Thus, binding rate 100% means that only the one molecule adduct was observed without any unbound KRAS. The following tables show the results.

MIA PaCa-2 cells = test: Growth inhibition activity on KRAS-G12C mutant cell line (MIA PaCa-2), CellTiter-Glo 3D; format: cell-based, human; details: MIA PaCa-2, 3-day culture with compound
Experimental: MIA PaCa-2 cells (given by Sumitomo Dainippon Pharma Co., Ltd.), which are a KRAS-G12C mutant human pancreas cancer cell line, were suspended in a 10% fetal bovine serum-containing RPMI1640 medium (manufactured by Fujifilm Wako Pure Chemical Corporation.). The cell suspension was seeded into each well of a 384-well U bottom microplate and cultured in an incubator containing 5% CO2 gas at 37° C. for 1 day. The compounds obtained in the “Preparation of Compounds” section were used as test compounds and were dissolved in DMSO, respectively, and each test compound was diluted with DMSO to give a concentration 500 times the final concentration. The resultant solution of the test compound in DMSO was diluted with the medium used for suspending cells and added to each well of the cell-culture plate to give a DMSO final concentration of 0.2%, followed by culture in an incubator containing 5% CO2 gas at 37° C. for another 3 days. The cell count after 3-day culture in the presence of the test compound was measured using CellTiter-Glo 3D Reagent (manufactured by Promega Corporation). All wells were added with CellTiter-Glo 3D Reagent and mixed for 10 minutes. 30 minutes after mixing, luminescence was measured by a plate reader. The growth inhibition rate was calculated from the following equation, and the concentration of the test compound at which 50/o inhibition was achieved (IC50 (nM)) was determined. The following tables show the results.
[formula] • T: the emission intensity in a well into which a test compound was added. • C: the emission intensity in a well into which a test compound was not added.

| Structure (SMILES) | IC50 [1] [nM] | binding rate [2] | IC50 (MIA PaCa-2 cells; Homo sapiens, MIA PaCa-2, 72 h) [nM] | IC50 (MIA PaCa-2 cells) [nM] |
| --- | --- | --- | --- | --- |
| CO[C@H]1CC[C@H](NC/C=C/C(=O)Nc2c(F)cc(C(=O)c3cc(CC#N)c4c(-c5c(C)cc6c(nc(C)n6C)c5Cl)cccn34)cc2F)CC1 [Example 108, (E)-N-(4-(8-(4-chloro-1,2,6-trimethyl-1H-benzo[d]imidazol-5-yl)-1-(cyanomethyl)indolizine-3-carbonyl)-2,6-difluorophenyl)-4-(((1r,4r)-4-methoxycyclohexyl)amino)but-2-enamide] | 40.5 | A (A binding rate of 80% or more is rated “A”) | 77.7 | – |
| COc1cc2c(cc1-c1cccn3c(C(=O)c4cc(F)c(NC(=O)/C=C/CN[C@H]5CC[C@H](OC)CC5)c(F)c4)ccc13)nc(C)n2C [Example 4, (E)-N-(2,6-difluoro-4-(8-(6-methoxy-1,2-dimethyl-1H-benzo[d]imidazol-5-yl)indolizine-3-carbonyl)phenyl)-4-(((1r,4r)-4-methoxycyclohexyl)amino)but-2-enamide] | 74 | A (A binding rate of 80% or more is rated “A”) | 42 | – |
| CO[C@H]1CC[C@H](NC/C=C/C(=O)Nc2c(F)cc(C(=O)c3ccc4c(-c5c(C(F)F)cc6c(nc(C)n6C)c5Cl)cccn34)cc2F)CC1 [Example 64, (E)-N-(4-(8-(4-chloro-6-(difluoromethyl)-1,2-dimethyl-1H-benzo[d]imidazol-5-yl)indolizine-3-carbonyl)-2,6-difluorophenyl)-4-(((1r,4r)-4-methoxycyclohexyl)amino)but-2-enamide] | 46 | A (A binding rate of 80% or more is rated “A”) | 25 | – |
| CO[C@H]1CC[C@H](NC/C=C/C(=O)Nc2c(F)cc(C(=O)c3c(C)nc4c(-c5cc6nc(C)n(C)c6cc5C(F)(F)F)cccn34)cc2F)CC1 [Example 51, (E)-N-(4-(8-(1,2-dimethyl-6-(trifluoromethyl)-1H-benzo[d]imidazol-5-yl)-2-methylimidazo[1,2-a]pyridine-3-carbonyl)-2,6-difluorophenyl)-4-(((1r,4r)-4-methoxycyclohexyl)amino)but-2-enamide] | 57 | A (A binding rate of 80% or more is rated “A”) | 120 | – |
| Cn1cnc2c(Cl)c(-c3cccn4c(C(=O)c5cc(F)c(NC(=O)/C=C/CNC(C)(C)C)c(F)c5)ccc34)c(Cl)cc21 (single isomer, unassigned) [Example 20-2, (E)-4-(tert-butylamino)-N-(4-(8-(4,6-dichloro-1-methyl-1H-benzo[d]imidazol-5-yl)indolizine-3-carbonyl)-2,6-difluorophenyl)but-2-enamide] | 33 | A (A binding rate of 80% or more is rated “A”) | – | 59 |
| CO[C@H]1CC[C@H](NC/C=C/C(=O)Nc2c(F)cc(C(=O)c3ccc4c(-c5c(C(F)(F)F)cc6c(nc(CO)n6C)c5Cl)cccn34)cc2F)CC1 [Example 67, (E)-N-(4-(8-(4-chloro-2-(hydroxymethyl)-1-methyl-6-(trifluoromethyl)-1H-benzo[d]imidazol-5-yl)indolizine-3-carbonyl)-2,6-difluorophenyl)-4-(((1r,4r)-4-methoxycyclohexyl)amino)but-2-enamide] | 38 | A (A binding rate of 80% or more is rated “A”) | 51 | – |
| Cc1nc2cc(-c3cccn4c(C(=O)c5cc(F)c(NC(=O)/C=C/CN[C@H]6CC[C@@H](F)CC6)c(F)c5)ccc34)c(C(F)(F)F)cc2n1C [Example 81] | 70 | A (A binding rate of 80% or more is rated “A”) | 71 | – |
| Cc1nc2cc(-c3cccn4c(C(=O)c5cc(F)c(NC(=O)/C=C/CN[C@H]6CCOC6)c(F)c5)ccc34)c(C(F)(F)F)cc2n1C [Example 92] | 80 | A (A binding rate of 80% or more is rated “A”) | 120 | – |
| COc1c(-c2cccn3c(C(=O)c4cc(F)c(NC(=O)/C=C/CNC(C)(C)C)c(F)c4)ccc23)c(C)cc2c1nc(C)n2C (single isomer, unassigned) [Example 40-2] | 21 | A (A binding rate of 80% or more is rated “A”) | – | 73 |
| COc1c(-c2cccn3c(C(=O)c4cc(F)c(NC(=O)/C=C/CN[C@H]5CC[C@H](OC)CC5)c(F)c4)ccc23)c(C)cc2c1nc(C)n2C (single isomer, unassigned) [Example 39-1, (E)-N-(2,6-difluoro-4-(8-(4-methoxy-1,2,6-trimethyl-1H-benzo[d]imidazol-5-yl)indolizine-3-carbonyl)phenyl)-4-(((1r,4r)-4-methoxycyclohexyl)amino)but-2-enamide] | 580 | A (A binding rate of 80% or more is rated “A”) | – | 350 |
| COc1c(-c2cccn3c(C(=O)c4cc(F)c(NC(=O)/C=C/CN[C@H]5CC[C@H](OC)CC5)c(F)c4)cnc23)c(C(F)(F)F)cc2c1nc(C)n2C (single isomer, unassigned) [Example 83-1, (E)-N-(2,6-difluoro-4-(8-(4-methoxy-1,2-dimethyl-6-(trifluoromethyl)-1H-benzo[d]imidazol-5-yl)imidazo[1,2-a]pyridine-3-carbonyl)phenyl)-4-(((1r,4r)-4-methoxycyclohexyl)amino)but-2-enamide] | 16 | A (A binding rate of 80% or more is rated “A”) | – | 16 |
| CO[C@H]1CC[C@H](NC/C=C/C(=O)Nc2c(F)cc(C(=O)c3cc(CO)c4c(-c5c(C)cc6c(nc(C)n6C)c5Cl)cccn34)cc2F)CC1 [Example 93] | 25 | A (A binding rate of 80% or more is rated “A”) | 130 | – |
